{
  "source": "ChEMBL document CHEMBL1641539",
  "about": "(Bioorg Med Chem Lett, 2011)",
  "key": {"[1]": {"tested_on": "Tyrosine-protein kinase ABL1 (Homo sapiens), P00519 [M351T]", "assay": "Inhibition of human Abl M351T mutant at 10 uM after 60 mins by TR-FRET assay; values are per cent of control"}, "[2]": {"biological_target": "Calcium/calmodulin-dependent protein kinase type II subunit beta (Homo sapiens) (UniProt Q13554)", "assay": "Inhibition of human CaMK2beta at 10 uM after 60 mins by TR-FRET assay; values are per cent of control"}, "[3]": {"biological_target": "Muscle, skeletal receptor tyrosine-protein kinase (Homo sapiens) (UniProt O15146)", "sequence (O15146 whole entry)": "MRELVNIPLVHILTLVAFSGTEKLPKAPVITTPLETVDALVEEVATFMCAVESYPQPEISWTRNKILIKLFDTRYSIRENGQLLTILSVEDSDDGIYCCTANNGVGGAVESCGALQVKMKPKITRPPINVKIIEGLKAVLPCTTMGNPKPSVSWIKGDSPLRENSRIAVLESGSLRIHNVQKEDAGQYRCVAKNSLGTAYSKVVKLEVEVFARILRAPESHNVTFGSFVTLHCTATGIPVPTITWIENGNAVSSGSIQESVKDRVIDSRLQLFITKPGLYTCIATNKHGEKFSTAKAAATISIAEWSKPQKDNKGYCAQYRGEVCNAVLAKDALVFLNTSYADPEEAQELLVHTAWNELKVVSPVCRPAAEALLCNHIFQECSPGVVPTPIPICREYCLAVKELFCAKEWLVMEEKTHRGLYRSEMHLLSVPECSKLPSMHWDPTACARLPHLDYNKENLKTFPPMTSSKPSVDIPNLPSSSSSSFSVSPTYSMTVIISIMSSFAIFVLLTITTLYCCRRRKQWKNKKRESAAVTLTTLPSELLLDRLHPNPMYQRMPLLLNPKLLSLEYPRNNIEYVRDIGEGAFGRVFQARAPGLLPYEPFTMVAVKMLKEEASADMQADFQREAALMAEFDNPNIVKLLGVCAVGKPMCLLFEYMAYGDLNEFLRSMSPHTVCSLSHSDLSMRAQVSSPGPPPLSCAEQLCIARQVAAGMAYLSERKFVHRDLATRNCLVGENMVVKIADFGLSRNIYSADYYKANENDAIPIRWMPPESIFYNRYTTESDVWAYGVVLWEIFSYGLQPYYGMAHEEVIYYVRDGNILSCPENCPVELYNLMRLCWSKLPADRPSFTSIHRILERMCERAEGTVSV", "assay": "Inhibition of human MuSK at 10 uM after 60 mins by TR-FRET assay; values are per cent of control"}, "[4]": {"biological_target": "Serine/threonine-protein kinase ULK3 (Homo sapiens) (UniProt Q6PHR2)", "sequence (Q6PHR2 whole entry)": "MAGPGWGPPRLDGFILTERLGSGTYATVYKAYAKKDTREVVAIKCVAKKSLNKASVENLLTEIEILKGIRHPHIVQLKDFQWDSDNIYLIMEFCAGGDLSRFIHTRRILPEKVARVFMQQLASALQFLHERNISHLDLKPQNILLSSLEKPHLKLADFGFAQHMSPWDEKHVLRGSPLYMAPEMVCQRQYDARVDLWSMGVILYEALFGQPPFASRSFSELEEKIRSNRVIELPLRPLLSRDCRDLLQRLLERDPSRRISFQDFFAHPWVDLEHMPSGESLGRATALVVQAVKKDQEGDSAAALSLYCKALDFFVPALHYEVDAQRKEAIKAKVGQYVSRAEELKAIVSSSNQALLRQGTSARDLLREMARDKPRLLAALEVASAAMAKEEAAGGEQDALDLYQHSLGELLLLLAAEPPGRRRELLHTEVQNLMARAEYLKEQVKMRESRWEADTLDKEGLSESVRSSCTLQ", "assay": "Inhibition of human ULK3 at 10 uM after 60 mins by TR-FRET assay", "details": "values are per cent of control"}, "[5]": {"biological_target": "Mitogen-activated protein kinase 1 (Mus musculus) (UniProt P63085)", "sequence (P63085 whole entry)": "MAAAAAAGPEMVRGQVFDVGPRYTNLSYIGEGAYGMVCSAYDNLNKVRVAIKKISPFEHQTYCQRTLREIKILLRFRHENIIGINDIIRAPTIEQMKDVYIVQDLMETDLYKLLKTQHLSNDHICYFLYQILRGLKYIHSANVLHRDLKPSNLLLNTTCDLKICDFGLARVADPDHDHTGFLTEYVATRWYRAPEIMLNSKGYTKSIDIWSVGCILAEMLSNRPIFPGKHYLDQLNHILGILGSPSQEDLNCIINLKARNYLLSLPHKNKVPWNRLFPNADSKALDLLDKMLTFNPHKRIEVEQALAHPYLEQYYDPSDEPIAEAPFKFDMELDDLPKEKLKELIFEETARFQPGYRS", "assay": "Inhibition of mouse MAPK2 at 10 uM after 60 mins by TR-FRET assay; values are per cent of control"}, "[6]": {"biological_target": "MAP kinase-activated protein kinase 5 (Homo sapiens) (UniProt Q8IW41)", "sequence (Q8IW41 whole entry)": "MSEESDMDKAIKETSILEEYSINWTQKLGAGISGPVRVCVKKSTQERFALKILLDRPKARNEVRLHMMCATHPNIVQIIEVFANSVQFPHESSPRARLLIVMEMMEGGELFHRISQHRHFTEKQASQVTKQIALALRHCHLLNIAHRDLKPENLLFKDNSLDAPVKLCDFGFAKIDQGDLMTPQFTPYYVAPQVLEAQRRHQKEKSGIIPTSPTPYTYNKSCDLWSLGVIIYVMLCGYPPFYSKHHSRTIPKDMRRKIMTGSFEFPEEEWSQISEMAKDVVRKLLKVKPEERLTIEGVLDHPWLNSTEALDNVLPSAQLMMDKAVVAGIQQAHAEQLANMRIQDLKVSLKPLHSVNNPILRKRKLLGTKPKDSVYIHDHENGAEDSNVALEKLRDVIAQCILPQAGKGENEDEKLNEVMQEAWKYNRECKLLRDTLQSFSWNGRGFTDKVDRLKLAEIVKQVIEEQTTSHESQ", "assay": "Residual activity of human PRAK at 10 uM after 60 mins by TR-FRET assay"}, "[7]": {"tested_on": "Platelet-derived growth factor receptor alpha (Homo sapiens), P16234 [V561D]", "assay": "Inhibition of human PDGFRalpha V561D mutant at 10 uM after 60 mins by TR-FRET assay; values are per cent of control"}, "[8]": {"biological_target": "Tyrosine-protein kinase ITK/TSK (Homo sapiens) (UniProt Q08881)", "assay": "Inhibition of human Itk at 10 uM after 60 mins by TR-FRET assay", "details": "values are per cent of control"}, "[9]": {"biological_target": "Tyrosine-protein kinase receptor TYRO3 (Homo sapiens) (UniProt Q06418)", "assay": "Inhibition of human Rse at 10 uM after 60 mins by TR-FRET assay", "details": "values are per cent of control"}, "[10]": {"biological_target": "Activin receptor type-1B (Homo sapiens) (UniProt P36896)", "assay": "Inhibition of human ALK4 at 10 uM after 60 mins by TR-FRET assay; values are per cent of control"}, "[11]": {"biological_target": "Serine/threonine-protein kinase haspin (Homo sapiens) (UniProt Q8TF76)", "sequence (Q8TF76 whole entry)": "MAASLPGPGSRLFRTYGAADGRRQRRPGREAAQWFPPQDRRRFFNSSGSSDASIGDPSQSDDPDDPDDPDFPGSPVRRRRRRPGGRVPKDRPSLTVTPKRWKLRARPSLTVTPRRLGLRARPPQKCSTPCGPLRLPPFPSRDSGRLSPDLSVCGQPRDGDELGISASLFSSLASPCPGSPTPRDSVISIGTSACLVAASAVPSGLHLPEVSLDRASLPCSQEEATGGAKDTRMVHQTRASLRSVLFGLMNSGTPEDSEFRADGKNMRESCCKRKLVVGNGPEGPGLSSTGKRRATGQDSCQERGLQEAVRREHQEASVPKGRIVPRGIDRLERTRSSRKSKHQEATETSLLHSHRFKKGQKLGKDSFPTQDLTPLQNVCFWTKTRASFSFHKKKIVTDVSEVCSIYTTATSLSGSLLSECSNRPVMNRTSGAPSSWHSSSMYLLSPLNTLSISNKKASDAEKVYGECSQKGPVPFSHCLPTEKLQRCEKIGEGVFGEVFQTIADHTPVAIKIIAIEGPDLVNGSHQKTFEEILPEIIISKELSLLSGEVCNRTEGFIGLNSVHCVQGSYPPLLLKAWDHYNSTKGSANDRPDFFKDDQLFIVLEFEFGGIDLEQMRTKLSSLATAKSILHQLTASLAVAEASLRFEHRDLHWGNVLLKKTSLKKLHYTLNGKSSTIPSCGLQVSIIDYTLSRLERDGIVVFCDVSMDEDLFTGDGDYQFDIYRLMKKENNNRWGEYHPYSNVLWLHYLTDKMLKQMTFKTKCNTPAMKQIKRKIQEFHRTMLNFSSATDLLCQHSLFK", "assay": "Inhibition of human Haspin at 10 uM after 60 mins by TR-FRET assay; values are per cent of control"}, "[12]": {"biological_target": "Casein kinase II (Homo sapiens) (UniProt P67870+P68400+P19784)", "assay": "Inhibition of human CK2 at 10 uM after 60 mins by TR-FRET assay; values are per cent of control"}, "[13]": {"biological_target": "Tyrosine-protein kinase Lyn (Homo sapiens) (UniProt P07948)", "assay": "Inhibition of human Lyn at 10 uM after 60 mins by TR-FRET assay", "details": "values are per cent of control"}, "[14]": {"biological_target": "MAP kinase-activated protein kinase 3 (Homo sapiens) (UniProt Q16644)", "assay": "Inhibition of human MAPKAP-K3 at 10 uM after 60 mins by TR-FRET assay; values are per cent of control"}, "[15]": {"biological_target": "Ephrin type-B receptor 2 (Homo sapiens) (UniProt P29323)", "assay": "Inhibition of human EphB2 at 10 uM after 60 mins by TR-FRET assay", "details": "values are per cent of control"}, "[16]": {"biological_target": "SRSF protein kinase 1 (Homo sapiens) (UniProt Q96SB4)", "assay": "Inhibition of human SRPK1 at 10 uM after 60 mins by TR-FRET assay; values are per cent of control"}, "[17]": {"biological_target": "Serine/threonine-protein kinase DCLK2 (Homo sapiens) (UniProt Q8N568)", "assay": "Inhibition of human DCAMKL2 at 10 uM after 60 mins by TR-FRET assay; values are per cent of control"}, "[18]": {"biological_target": "Mitogen-activated protein kinase 1 (Homo sapiens, UniProt P28482)", "assay": "Inhibition of human MAPK2 at 10 uM after 60 mins by TR-FRET assay", "details": "values are per cent of control"}, "[19]": {"biological_target": "Tyrosine-protein kinase Fyn (Homo sapiens) (UniProt P06241)", "assay": "Inhibition of human Fyn at 10 uM after 60 mins by TR-FRET assay", "details": "values are per cent of control"}, "[20]": {"biological_target": "Tyrosine-protein kinase FRK (Homo sapiens) (UniProt P42685)", "assay": "Inhibition of human PTK5 at 10 uM after 60 mins by TR-FRET assay; values are per cent of control"}, "[21]": {"biological_target": "Homeodomain-interacting protein kinase 2 (Homo sapiens) (UniProt Q9H2X6)", "assay": "Inhibition of human HIPK2 at 10 uM after 60 mins by TR-FRET assay; values are per cent of control"}, "[22]": {"biological_target": "RAF proto-oncogene serine/threonine-protein kinase (Homo sapiens) (UniProt P04049)", "assay": "Inhibition of human c-RAF at 10 uM after 60 mins by TR-FRET assay; values are per cent of control"}, "[23]": {"tested_on": "Serine/threonine-protein kinase Chk2 (Homo sapiens), O96017 [R145W]", "sequence (O96017 whole entry R145W)": "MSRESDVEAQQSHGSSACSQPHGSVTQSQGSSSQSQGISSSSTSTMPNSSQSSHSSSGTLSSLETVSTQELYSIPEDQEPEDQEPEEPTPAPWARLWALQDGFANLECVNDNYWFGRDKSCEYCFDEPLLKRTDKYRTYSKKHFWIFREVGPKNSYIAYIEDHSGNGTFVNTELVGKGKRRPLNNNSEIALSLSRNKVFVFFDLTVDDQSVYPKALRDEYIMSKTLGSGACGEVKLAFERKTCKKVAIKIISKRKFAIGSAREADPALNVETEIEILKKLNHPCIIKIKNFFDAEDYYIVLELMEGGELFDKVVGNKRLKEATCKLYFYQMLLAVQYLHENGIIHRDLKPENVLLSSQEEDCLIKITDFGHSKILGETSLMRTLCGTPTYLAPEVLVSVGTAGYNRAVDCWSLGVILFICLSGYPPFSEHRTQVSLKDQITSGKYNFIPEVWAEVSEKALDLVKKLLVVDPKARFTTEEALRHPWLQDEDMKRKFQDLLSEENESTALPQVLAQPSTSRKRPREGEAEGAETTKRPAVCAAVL", "assay": "Inhibition of human CHK2 R145W mutant at 10 uM after 60 mins by TR-FRET assay; values are per cent of control"}, "[24]": {"biological_target": "Protein kinase C iota type (Homo sapiens) (UniProt P41743)", "assay": "Inhibition of human PKCiota at 10 uM after 60 mins by TR-FRET assay; values are per cent of control"}, "[25]": {"biological_target": "Tyrosine-protein kinase ABL1 (Mus musculus) (UniProt P00520)", "assay": "Inhibition of mouse Abl at 10 uM after 60 mins by TR-FRET assay; values are per cent of control"}, "[26]": {"biological_target": "Tyrosine-protein kinase Blk (Mus musculus) (UniProt P16277)", "sequence (P16277 whole entry)": "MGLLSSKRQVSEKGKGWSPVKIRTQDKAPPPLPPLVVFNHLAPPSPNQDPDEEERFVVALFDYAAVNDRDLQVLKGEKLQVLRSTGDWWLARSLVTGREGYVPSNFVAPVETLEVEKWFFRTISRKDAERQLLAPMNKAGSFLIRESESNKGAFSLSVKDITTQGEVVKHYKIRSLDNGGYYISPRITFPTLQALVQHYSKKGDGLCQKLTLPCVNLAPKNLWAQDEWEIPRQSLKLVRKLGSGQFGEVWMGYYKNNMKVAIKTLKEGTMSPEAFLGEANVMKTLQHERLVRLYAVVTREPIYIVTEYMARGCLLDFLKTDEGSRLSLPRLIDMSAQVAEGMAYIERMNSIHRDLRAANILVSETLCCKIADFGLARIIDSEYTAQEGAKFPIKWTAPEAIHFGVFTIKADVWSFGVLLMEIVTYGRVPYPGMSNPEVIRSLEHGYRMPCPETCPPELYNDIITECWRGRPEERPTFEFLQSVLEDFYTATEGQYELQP", "assay": "Inhibition of mouse Blk at 10 uM after 60 mins by TR-FRET assay; values are per cent of control"}, "[27]": {"biological_target": "Ribosomal protein S6 kinase alpha-1 (Homo sapiens) (UniProt Q15418)", "sequence (Q15418 whole entry)": "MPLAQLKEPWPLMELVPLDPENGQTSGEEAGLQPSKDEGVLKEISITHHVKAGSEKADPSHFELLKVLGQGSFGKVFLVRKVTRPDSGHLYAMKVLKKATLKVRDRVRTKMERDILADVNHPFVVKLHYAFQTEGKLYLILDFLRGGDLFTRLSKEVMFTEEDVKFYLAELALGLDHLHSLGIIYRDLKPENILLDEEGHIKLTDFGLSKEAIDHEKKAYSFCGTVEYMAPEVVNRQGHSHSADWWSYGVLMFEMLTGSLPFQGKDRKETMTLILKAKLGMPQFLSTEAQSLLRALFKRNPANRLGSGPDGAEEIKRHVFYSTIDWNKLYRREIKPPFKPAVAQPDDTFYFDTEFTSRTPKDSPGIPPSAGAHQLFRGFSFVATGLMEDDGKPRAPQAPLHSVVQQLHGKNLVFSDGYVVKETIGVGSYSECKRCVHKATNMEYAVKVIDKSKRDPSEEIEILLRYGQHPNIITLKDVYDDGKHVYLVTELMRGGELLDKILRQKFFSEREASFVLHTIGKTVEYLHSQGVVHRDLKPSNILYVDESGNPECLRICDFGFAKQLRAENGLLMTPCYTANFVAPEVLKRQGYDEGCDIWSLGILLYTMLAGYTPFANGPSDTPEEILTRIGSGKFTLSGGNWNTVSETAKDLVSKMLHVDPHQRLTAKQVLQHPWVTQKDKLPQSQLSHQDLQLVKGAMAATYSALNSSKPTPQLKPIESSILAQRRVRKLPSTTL", "assay": "Inhibition of human Rsk1 at 10 uM after 60 mins by TR-FRET assay", "details": "values are per cent of control"}, "[28]": {"biological_target": "Serine/threonine-protein kinase MARK2 (Homo sapiens) (UniProt Q7KZI7)", "assay": "Inhibition of human PAR-1Balpha at 10 uM after 60 mins by TR-FRET assay; values are per cent of control"}, "[29]": {"biological_target": "Serine/threonine-protein kinase 24 (Homo sapiens) (UniProt Q9Y6E0)", "assay": "Inhibition of human MST3 at 10 uM after 60 mins by TR-FRET assay", "details": "values are per cent of control"}},
  "data": [
    {"smiles": "S=c1[nH]nc(-c2ccncc2)n1-c1ccc2ccccc2c1", "values": [
      {"measurement": "residual activity", "setting": "[1]", "value": 109, "unit": "%"},
      {"measurement": "residual activity", "setting": "[2]", "value": 113, "unit": "%"},
      {"measurement": "residual activity", "setting": "[3]", "value": 114, "unit": "%"},
      {"measurement": "residual activity", "setting": "[4]", "value": 107, "unit": "%"},
      {"measurement": "residual activity", "setting": "[5]", "value": 114, "unit": "%"},
      {"measurement": "residual activity", "setting": "[6]", "value": 119, "unit": "%"},
      {"measurement": "residual activity", "setting": "[7]", "value": 107, "unit": "%"},
      {"measurement": "residual activity", "setting": "[8]", "value": 103, "unit": "%"},
      {"measurement": "residual activity", "setting": "[9]", "value": 116, "unit": "%"},
      {"measurement": "residual activity", "setting": "[10]", "value": 112, "unit": "%"},
      {"measurement": "residual activity", "setting": "[11]", "value": 102, "unit": "%"},
      {"measurement": "residual activity", "setting": "[12]", "value": 110, "unit": "%"},
      {"measurement": "residual activity", "setting": "[13]", "value": 102, "unit": "%"},
      {"measurement": "residual activity", "setting": "[14]", "value": 112, "unit": "%"},
      {"measurement": "residual activity", "setting": "[15]", "value": 105, "unit": "%"},
      {"measurement": "residual activity", "setting": "[16]", "value": 93, "unit": "%"},
      {"measurement": "residual activity", "setting": "[17]", "value": 112, "unit": "%"},
      {"measurement": "residual activity", "setting": "[18]", "value": 114, "unit": "%"},
      {"measurement": "residual activity", "setting": "[19]", "value": 116, "unit": "%"},
      {"measurement": "residual activity", "setting": "[20]", "value": 98, "unit": "%"},
      {"measurement": "residual activity", "setting": "[21]", "value": 95, "unit": "%"},
      {"measurement": "residual activity", "setting": "[22]", "value": 35, "unit": "%"},
      {"measurement": "residual activity", "setting": "[23]", "value": 108, "unit": "%"},
      {"measurement": "residual activity", "setting": "[24]", "value": 98, "unit": "%"},
      {"measurement": "residual activity", "setting": "[25]", "value": 94, "unit": "%"},
      {"measurement": "residual activity", "setting": "[26]", "value": 107, "unit": "%"},
      {"measurement": "residual activity", "setting": "[27]", "value": 105, "unit": "%"},
      {"measurement": "residual activity", "setting": "[28]", "value": 110, "unit": "%"},
      {"measurement": "residual activity", "setting": "[29]", "value": 111, "unit": "%"}
    ]}
  ]
}
